Measurements reported in ChEMBL document CHEMBL1201862, “PubChem BioAssay data set” (2004).
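Briefly, cells in 96-well plates were exposed to five compound concentrations for 48 h, and endpoints were estimated by linear interpolation. GI50 is the concentration that inhibits growth by half.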 Active and inactive are the calls of the source. Rule as the data show it: active = GI50 up to about 1.1 µM and inactive = higher.

Tests used:
Assay in all cases: NCI tumour cell line growth inhibition, 48 h
HCT-116 = test system: HCT-116
SK-MEL-5 = test system: SK-MEL-5
TK-10 = test system: TK-10
A549 = test system: A549
UACC-62 = test system: UACC-62
MOLT-4 = test system: MOLT-4
OVCAR-5 = test system: OVCAR-5
UACC-257 = test system: UACC-257
COLO 205 = test system: COLO 205
HOP-62 = test system: HOP-62
OVCAR-8 = test system: OVCAR-8
IGROV-1 = test system: IGROV-1
RPMI-8226 = test system: RPMI-8226
M14 = test system: M14
T47D = test system: T47D
DU-145 = test system: DU-145
SF-268 = test system: SF-268
HL-60 = test system: HL-60
HOP-92 = test system: HOP-92
SK-MEL-28 = test system: SK-MEL-28

Compound | GI50 (HCT-116) | GI50 (SK-MEL-5) | GI50 (TK-10) | GI50 (A549) | GI50 (UACC-62) | GI50 (MOLT-4) | GI50 (OVCAR-5) | GI50 (UACC-257) | GI50 (COLO 205) | GI50 (HOP-62) | GI50 (OVCAR-8) | GI50 (IGROV-1) | GI50 (RPMI-8226) | GI50 (M14) | GI50 (T47D) | GI50 (DU-145) | GI50 (SF-268) | GI50 (HL-60) | GI50 (HOP-92) | GI50 (SK-MEL-28)
COc1cccc2c1OC1c3ccccc3OCC1C2 (configuration not stated) | 74.6 µM (inactive) | 35.7 µM (inactive) | 43.9 µM (inactive) | > 100 µM (inactive) | > 100 µM (inactive) | 96.2 µM (inactive) | > 100 µM (inactive) | 83.6 µM (inactive) | > 100 µM (inactive) | > 100 µM (inactive) | > 100 µM (inactive) | 41.1 µM (inactive) | > 100 µM (inactive) | > 100 µM (inactive) | 44.1 µM (inactive) | > 100 µM (inactive) | > 100 µM (inactive) |  |  | 
CC(=O)ONC(C(=O)C(C)(C)C)C(=O)C(C)(C)C | > 100 µM (inactive) | > 100 µM (inactive) | > 100 µM (inactive) | > 100 µM (inactive) |  | > 100 µM (inactive) | > 100 µM (inactive) | > 100 µM (inactive) | > 100 µM (inactive) | > 100 µM (inactive) | > 100 µM (inactive) | > 100 µM (inactive) | > 100 µM (inactive) | > 100 µM (inactive) | > 100 µM (inactive) | > 100 µM (inactive) | > 100 µM (inactive) | > 100 µM (inactive) | > 100 µM (inactive) | > 100 µM (inactive)
CCOC(=O)c1ccc(-n2nnc(C(N)=O)c2O)cc1 | > 100 µM (inactive) | > 100 µM (inactive) | > 100 µM (inactive) | > 100 µM (inactive) | > 100 µM (inactive) | > 100 µM (inactive) | > 100 µM (inactive) | > 100 µM (inactive) | > 100 µM (inactive) | > 100 µM (inactive) | > 100 µM (inactive) | > 100 µM (inactive) | > 100 µM (inactive) | > 100 µM (inactive) | > 100 µM (inactive) | > 100 µM (inactive) | > 100 µM (inactive) |  |  | > 100 µM (inactive)
CN(Cc1cnc2nc(N)nc(N)c2n1)c1ccc(C(=O)NCCCS(=O)(=O)O)cc1 | 83.9 µM (inactive) | > 100 µM (inactive) | > 100 µM (inactive) | > 100 µM (inactive) | > 100 µM (inactive) | > 100 µM (inactive) | > 100 µM (inactive) | > 100 µM (inactive) | > 100 µM (inactive) | > 100 µM (inactive) | > 100 µM (inactive) | > 100 µM (inactive) | > 100 µM (inactive) | > 100 µM (inactive) | > 100 µM (inactive) | > 100 µM (inactive) | > 100 µM (inactive) |  | 0.0264 µM (active) | > 100 µM (inactive)
CCOC(=O)CCC(NC(=O)c1ccc(OCc2nc3ccccc3n3cccc23)cc1)C(=O)OCC (configuration not stated) | 36.3 µM (inactive) | 93.3 µM (inactive) | > 100 µM (inactive) | > 100 µM (inactive) | > 100 µM (inactive) | 1.65 µM (inactive) | > 100 µM (inactive) | 87.5 µM (inactive) | > 100 µM (inactive) | 38 µM (inactive) | 33.5 µM (inactive) | 31.6 µM (inactive) |  | 63.2 µM (inactive) | 20 µM (inactive) | 74.1 µM (inactive) | 49.3 µM (inactive) | 11.5 µM (inactive) | 45.6 µM (inactive) | > 100 µM (inactive)
CN1CCc2c([nH]c3ccccc23)C1 | > 100 µM (inactive) | > 100 µM (inactive) | > 100 µM (inactive) | > 100 µM (inactive) | > 100 µM (inactive) | > 100 µM (inactive) | > 100 µM (inactive) | > 100 µM (inactive) | > 100 µM (inactive) | > 100 µM (inactive) | > 100 µM (inactive) | > 100 µM (inactive) | > 100 µM (inactive) | > 100 µM (inactive) | > 100 µM (inactive) | > 100 µM (inactive) | > 100 µM (inactive) | > 100 µM (inactive) |  | > 100 µM (inactive)
O=C1c2ccccc2C(=O)C2NC(CCCCCSSCCCCCC3=NC4C(=O)c5ccccc5C(=O)C4N3)=NC12 (configuration not stated) | 14.8 µM (inactive) | 19.9 µM (inactive) | 68.2 µM (inactive) |  |  | 3.8 µM (inactive) | > 100 µM (inactive) | 64.3 µM (inactive) |  | > 100 µM (inactive) | 45.2 µM (inactive) | 12.9 µM (inactive) | > 100 µM (inactive) | 4.57 µM (inactive) | > 100 µM (inactive) | > 100 µM (inactive) | 27.3 µM (inactive) | > 100 µM (inactive) | 5.56 µM (inactive) | > 100 µM (inactive)
CCOC(=O)c1cc(C2CCN(c3ccccc3)C2=O)c(C(=O)/C=C(/C)N)[nH]1 (configuration not stated) | 12.7 µM (inactive) | 40.8 µM (inactive) | 28.2 µM (inactive) | 25.6 µM (inactive) | 16.2 µM (inactive) | 39.6 µM (inactive) | 46.3 µM (inactive) | 94.8 µM (inactive) | > 100 µM (inactive) | 18.1 µM (inactive) | 28.3 µM (inactive) | 33.7 µM (inactive) | > 100 µM (inactive) | 65 µM (inactive) | 32.8 µM (inactive) | 54.5 µM (inactive) | 30.2 µM (inactive) | > 100 µM (inactive) |  | 29.1 µM (inactive)
